Literature values, collected in patent US20160302965A1, “IMPLANTABLE THERAPEUTIC DEVICES” (ForSight Vision4, Inc., priority 2013, published 2016).

Row | solubility of the prodrug (concentration maintained in the fluid boundary layer) [µg/mL] | solubility in PBS at pH 7 (pH 7) [ug/ml] | solubility at pH 7 (pH 7) | Structure (SMILES)
1 | 300 | 300 | – | CCNC(=O)CCC/C=C\C[C@@H]1[C@@H](/C=C/[C@@H](O)CCc2ccccc2)[C@H](O)C[C@@H]1O [bimatoprost]
2 | – | – | about 600 ug/ml | Brc1c(NC2=NCCN2)ccc2nccnc12 [brimonidine]
3 | – | 800 | – | O=C(O)CCC/C=C\C[C@@H]1[C@@H](CC[C@@H](O)CCc2ccccc2)[C@H](O)C[C@@H]1O [latanoprost free acid]
4 | – | 50 | – | CC(C)OC(=O)CCC/C=C\C[C@@H]1[C@@H](CC[C@@H](O)CCc2ccccc2)[C@H](O)C[C@@H]1O [latanoprost]
